Reference: patent US4940716A, “2-amino-tetrahydro-isoquinolene derivatives and a process for the preparation thereof and pharmaceutical compositions containing same” (Chinoin Gyogyszer es Vegyeszeti Termekek Gyara Rt, priority 1987, dated 1990)

Assay: Salidiuretic screening test in rats (Lipschitz method modified by Kagawa and Kalm), 5 mg/kg p.o.
Format: in vivo, rats (LATI CFY strain, male)
Details: for K secretion, % of simultaneously measured control / Na secretion, % of simultaneously measured control / Water secretion, % of simultaneously measured control / secreted Na/K: single oral dose 5 mg/kg, rat; for Na/K ratio (in words) / secretion of urine amount and alkali metal ion: 5 mg/kg per os, rats; for secretion of urine amount and alkali metal ion: compared with dihydrochlorothiazide and furosemid
Experimental: Significant diuretic compounds containing an isoquinoline ring system have not been disclosed and therefore it is surprising that the compounds of the Formula (I) show a significant diuretic and saluretic activity. In a screening test carried out in rats (administered per os 5 mg/kg) the compounds according to the invention were compared with dihydrochlorothiazide and furosemid. […] Screen tests were carried out in masculine rats belonging to […] strain weighing at an average 240 g. The animals obtained standard rat nourishment. 16 hours before the experiment the animals were deprived of nourishment but the liquid uptake was not restricted. In order to show diuretic activity the procedure of Lipschitznek modified by Kagawa and Kalm was used. (Arch. Int. Pharmacodyn. 137, 241-249 (1962). The animals were placed into a metabolism cage. The urine collection was carried out in 0-6 and 0-24 hour periods. The control animals were administered 25 cm^3 /kg physiological salt solution through a gastric tube. The test substance was administered to the animals through a gastric tube at a dose of 5 mg/kg in physiological salt solution of an amount corresponding to the amount of physiological salt solution given to the control animals. After 6 hours the animals were administered the same volume of physiological saline solution as the volume excreted with 0-6 hours through a gastric tube. The amount of secreted urine between 0 to 6 and 0 to 24 hours was measured and calculated together with the concentration of sodium and potassium and the Na/K ratio of the urine secreted within a given period. Simultaneously with each test control groups treated with physiological salt solution and hypothiazide were used. Effect of a single oral dose of 5 mg/kg of the compouns on the secretion of water, sodium and potassium within 0-6 and 0-24 hours in the % of the simultaneously measured control values and on the secreted Na/K.

| Compound | K secretion, % of simultaneously measured control (0-6 h) [%] | Na secretion, % of simultaneously measured control (0-6 h) [%] | Water secretion, % of simultaneously measured control (0-6 h) [%] | secreted Na/K (0-6 h, control 1.81) | K secretion, % of simultaneously measured control (0-24 h) [%] | Na secretion, % of simultaneously measured control (0-24 h) [%] | Water secretion, % of simultaneously measured control (0-24 h) [%] | secreted Na/K (0-24 h, control 2.45) | Na/K ratio (in words) | secretion of urine amount and alkali metal ion |
| --- | --- | --- | --- | --- | --- | --- | --- | --- | --- | --- |
| NS(=O)(=O)c1cc(C(=O)NN2CCc3ccccc3C2)ccc1Cl [Example 1, 2-[(3'-sulfamoyl-4'-chloro)-benzoyl]-amino-1,2,3,4-tetrahydro-isoquinoline] | 145 | 260 | 216 | 9.09 | 82 | 152 | 148 | 5.94 | favorable | particularly advantageous |
| CC1c2ccccc2CCN1NC(=O)c1ccc(Cl)c(S(N)(=O)=O)c1 (stereo not drawn) [Example 2, 1-methyl-2-[(3'-sulfamoyl-4'-chloro)-benzoyl]-amino-1,2,3,4-tetrahydro-isoquinoline] | 170 | 279 | 233 | 7.56 | 100 | 151 | 154 | 5.38 | favorable | particularly advantageous |
| COc1cc2c(cc1OC)C(C)N(NC(=O)c1ccc(Cl)c(S(N)(=O)=O)c1)CC2 (stereo not drawn) [Example 3, 1-methyl-2-[(3'-sulfamoyl-4'-chloro-benzoyl)-amino]-6,7-dimethoxy-1,2,3,4-tetrahydro-isoquinoline-monohydrate] | 104 | 186 | 147 | 4.74 | 84 | 121 | 112 | 3.99 |  |  |
| NS(=O)(=O)c1cc2c(cc1Cl)NCNS2(=O)=O [Hypothiazide, reference compound] | 117 | 187 | 159 | 3.90 | 109 | 123 | 119 | 3.50 |  |  |
